These results are taken from patent US4954347A (priority 1988, dated 1990).

SMILES strings stand for the structures. “Also recorded” adds a separate entry of the source. Structures can show the parent of a compound that is named as a salt. Where two headings read alike, the source gives them in different places.

The term half-life denotes the time needed for the level to fall by half in the phase considered.

The test system of data set [1] is electrically induced arrhythmias, ventricular tachycardias, circus-movement flutter. The settings on record: experimental animals; cited from earlier work.
For data set [2] the following is noted: one patient; quinidine concomitantly with propafenone.
The conditions of data set [3]: human, in vivo; cited from earlier work.
For data set [4], the system named is beta-adrenergic. To be noted: cited from earlier work.
Data set [5] concerns calcium. To be noted: cited from earlier work.
Data set [6] concerns fast inward sodium channels. To be noted: hydrochloride; cited from earlier work.
In data set [7] the test system is supraventricular and ventricular arrhythmias. The settings on record: in vivo; hydrochloride; cited from earlier work.

On to `C=C[C@H]1C[N@@]2CC[C@H]1C[C@@H]2[C@@H](O)c1ccnc2ccc(OC)cc12` [quinidine], for which, in data set [1], the “"late" ventricular tachycardias following coronary artery occlusion” value is “prevent or terminate”, the circus-movement flutter result is listed as “terminate or prevent” and the “threshold for electrically induced arrhythmias” value is “raise the threshold”. The “effect on the blood levels of propafenone” value in data set [2] is given as “very pronounced effect”.

Regarding `COCCc1ccc(OCC(O)CNC(C)C)cc1` (centres unmarked) [metoprolol], in data set [3], the half-life is 3 to 7 h and the systemic bioavailability is reported as 40-50%. Also, the beta-blocking activity entry in data set [4] is recorded as “primarily a beta-adrenergic blocking agent”.

In the case of `CCCNCC(O)COc1ccccc1C(=O)CCc1ccccc1` (centres unmarked) [propafenone, 2'-[3-(prophylamino)-2-(hydroxy)-(propoxy)-3-phenylpropiophenone hydrochloride], the calcium antagonist activity result in data set [5] is reported as “weak calcium antagonist activity”. For the same compound, in data set [4] (hydrochloride), the beta-blocking activity result was “only a weak beta-blocker”. In addition, the “blockade of fast sodium channels” value in data set [6] is reported as “blocks fast inward sodium channels; also recorded: blockade of the fast sodium channel”. The “suppression of supraventricular and ventricular arrhythmias” value in data set [7] is “effective against recurrent supraventricular and ventricular arrhythmias; also recorded: effective in suppressing both supraventricular and ventricular arrhythmias”.
